Experimental data reported in patent US20170027917A1, “PHARMACEUTICAL COMPOSITIONS COMPRISING ANTIBACTERIAL AGENTS” (priority 2014, published 2017).
Like-named read-outs stand apart in the source and are kept apart here.

Assays:
Assay in all cases: MIC determination in Muller Hinton Agar (CLSI agar dilution)
Assay type in all cases: cell-based
Citrobacter sp S123A = tested on: Citrobacter sp S123A
Protocol: (§1) The antibacterial activity of combinations according to the invention against resistant bacterial strains was investigated. Minimum Inhibitory Concentration (MIC) determination for the combinations according to invention was carried out in Muller Hinton Agar (MHA) (BD, USA) according to Clinical and Laboratory Standards Institute (CLSI) recommendations, (Clinical and Laboratory Standards Institute (CLSI), Performance Standards for Antimicrobial Susceptibility Testing, 20th Informational Supplement, M 100-S20, Volume 30, No. 1, 2010). In short, the test strains were adjusted to deliver about 10^4 CFU per spot with a multipoint inoculator (Applied Quality Services, UK). The plates were pored with MHA containing doubling concentration range of the test combinations according to invention. The plates were inoculated and were incubated at 35° C. for 18 hours.

E. cloacae J137 = settings: Enterobacter cloacae
Protocol: as §1

E. coli M50 = settings: Escherichia coli
Protocol: as §1

E. coli NCTC 13352 = settings: Escherichia coli, NCTC13352
Protocol: as §1

E. coli S206 = settings: Escherichia coli
Protocol: as §1

[1] = tested on: K. pneumoniae ATCC 700603; settings: Klebsiella pneumoniae, ATCC700603
Protocol: as §1

K. pneumoniae H521 = settings: Klebsiella pneumoniae
Protocol: as §1

K. pneumoniae J102 = settings: Klebsiella pneumoniae
Protocol: as §1

K. pneumoniae J125 = settings: Klebsiella pneumoniae
Protocol: as §1

P. aeruginosa 1405 = settings: Pseudomonas aeruginosa; P. aeruginosa 1405, Derepressed AmpC; agent alone
Protocol: as §1

P. aeruginosa 2779 = settings: Pseudomonas aeruginosa
Protocol: as §1

SMILES	MIC (Citrobacter sp S123A) [µg/mL]	MIC (E. cloacae J137; J137) [µg/mL]	MIC (E. coli M50; M50) [µg/mL]	MIC (E. coli NCTC 13352) [µg/mL]	MIC (E. coli S206; S206) [µg/mL]	MIC [1] [µg/mL]	MIC (K. pneumoniae H521; H521) [µg/mL]	MIC (K. pneumoniae J102; J102) [µg/mL]	MIC (K. pneumoniae J125; J125) [µg/mL]	MIC (P. aeruginosa 1405) [µg/mL]	MIC (P. aeruginosa 2779; 2779) [µg/mL]	MIC (E. cloacae J137; E. cloacae J137, P99, agent alone, read-out: MIC) [µg/mL]	MIC (E. coli M50; E. coli M50, CMY-2, agent alone, read-out: MIC) [µg/mL]	MIC (E. coli NCTC 13352; E. coli NCTC 13352, TEM-10, agent alone, read-out: MIC) [µg/mL]	MIC (E. coli S206; E. coli S206, Class C, agent alone, read-out: MIC) [µg/mL]	MIC ([1]; K. pneumoniae ATCC 700603, SHV-18, agent alone, read-out: MIC) [µg/mL]	MIC (K. pneumoniae H521; K. pneumoniae H521, KPC, SHV, TEM, agent alone, read-out: MIC) [µg/mL]	MIC (K. pneumoniae J102; K. pneumoniae J102, OMP, SHV, TEM, agent alone, read-out: MIC) [µg/mL]	MIC (K. pneumoniae J125; K. pneumoniae J125, KPC3, SHV, TEM, agent alone, read-out: MIC) [µg/mL]	MIC (P. aeruginosa 2779; P. aeruginosa 2779, AmpC, agent alone, read-out: MIC) [µg/mL]
Cn1c(N)c(NC(=O)NCCN)c[n+]1CC1=C(C(=O)O)N2C(=O)[C@@H](NC(=O)/C(=N\OC(C)(C)C(=O)[O-])c3nsc(N)n3)[C@H]2SC1 [Ceftolozane]	> 32	> 32	> 32	> 32	> 32	4	> 32	> 32	32	8	4	–	–	–	–	–	–	–	–	–
C[C@@H](O)[C@H]1C(=O)N2C(C(=O)O)=C(SCCN=CN)C[C@H]12 [Imipenem]	4	–	–	–	–	–	–	–	–	16	–	1	0.5	0.25	0.25	0.5	32	4	8	2
